Assays:
LL29 cells = assay: Inhibition of the fibrotic process (αSMA staining) in TGF-β1 treated primary human fibroblasts from IPF patients; assay type: cell-based; details: Fibroblast, 96 h, TGF-β1 20 ng/mL, 4 days, dose-response 10 μM to 1.87 nM, read-out: Inhibition of fibrosis EC50
Text: The above synthesized compounds were screened using primary human fibroblasts (derived from IPF patients) treated with TGF-β1 to determine their ability to inhibit the fibrotic process.
Primary human fibroblasts derived from IPF patients (LL29 cells) [^1Xiaoqiu Liu, et. al., “Fibrotic Lung Fibroblasts Show Blunted Inhibition by cAMP Due to Deficient cAMP Response Element-Binding Protein Phosphorylation”, Journal of Pharmacology and Experimental Therapeutics (2005), 315(2), 678-687; ^2Watts, K. L., et. al., “RhoA signaling modulates cyclin D1 expression in human lung fibroblasts; implications for idiopathic pulmonary fibrosis”, Respiratory Research (2006), 7(1), 88] were obtained from American Type Culture Collection (ATCC) and expanded in F12 medium supplemented with 15% Fetal Bovine Serum and Penicillin/Streptomycin.
Each compound was dissolved in DMSO as a 10 mM stock and used to prepare compound source plates. Serial dilution (1:2, 11-point dose-response curves from 10 μM to 1.87 nM) and compound transfer was performed using the ECHO 550 (Labcyte, Sunnyvale, Calif.) into 384-well clear bottom assay plates (Greiner Bio-One) with appropriate DMSO backfill for a final DMSO concentration of 0.1%. LL29 cells were plated at 1,500 cells/well in 80 μl/well F12 medium supplemented with 1% Fetal Bovine Serum. One hour after addition of the cells, TGF-β1 (Peprotech; 20 ng/mL) was added to the plates to induce fibrosis (ref. 1 and 2 above). Wells treated with TGF-β1 and containing DMSO were used as controls. Cells were incubated at 37° C. and 5% CO2 for 4 days. Following incubation for 4 days, SYTOX green nucleic acid stain (Life Technologies [Thermo Fisher Scientific]) was added to the wells at a final concentration of 1 uM and incubated at room temperature for 30 min. Cells were then fixed using 4% formaldehyde (Electron Microscopy Sciences), washed 3 times with PBS followed by blocking and permeabilization using 3% Bovine Serum Albumin (BSA; Sigma) and 0.3% Triton X-100 (Sigma) in PBS. Cells were then stained with antibody specific to α-smooth muscle actin (αSMA; Abcam) (ref. 1 and 2 above) in 3% Bovine Serum Albumin (BSA; Sigma) and 0.3% Triton X-100 (Sigma) in PBS, and incubated overnight at 4° C. Cells were then washed 3 times with PBS, followed by incubation with Alexa Flor-647 conjugated secondary antibody (Life Technologies [Thermo Fisher Scientific]) and DAPI at room temperature for 1 hour. Cells were then washed 3 times with PBS and plates were sealed for imaging. αSMA staining was imaged by excitation at 630 nm and emission at 665 nm and quantified using the Compartmental Analysis program on the CellInsight CX5 (Thermo Scientific). Dead or apoptotic cells were excluded from analysis based on positive SYTOX green staining. % of total cells positive for αSMA were counted in each well and normalized to the average of 11 wells treated with TGF-31 on the same plate using Dotmatics' Studies Software. The normalized averages (fold change over untreated) of 3 replicate wells for each compound concentration were used to create dose-responses curves and EC50 values were calculated using non-linear regression curve fit in the Dotmatics' Studies Software. The EC50 values are reported.

[1] = test system: Wnt pathway (Sp5-Luc reporter, SW480 cells); assay: Sp5-Luc reporter gene screening assay for Wnt activity in SW480 colon carcinoma cells; assay type: cell-based; details: Homo sapiens
Outline: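 IC50 values come from variable-slope four-parameter fits of luciferase signal normalized to DMSO wells. Stable Sp5-Luc reporter SW480 colon carcinoma cells were exposed to compounds in a 3-fold dilution series (source plates from 10 mM stock) for forty-two hours at 37 °C.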

SMILES | EC50 (LL29 cells) | IC50 [1]
O=C(Nc1cncc(-c2cc3c(-c4nc5c(-c6ccsc6)nccc5[nH]4)n[nH]c3cn2)c1)C1CCC1 [Compound 280, N-(5-(3-(4-(Thiophen-3-yl)-1H-imidazo[4,5-c]pyridin-2-yl)-1H-pyrazolo[3,4-c]pyridin-5-yl)pyridin-3-yl)cyclobutanecarboxamide] | ≥ 9990 nM | 42.8 nM
c1ccc(CNCc2cncc(-c3cc4c(-c5nc6c(-c7ccsc7)nccc6[nH]5)n[nH]c4cn3)c2)cc1 [Compound 283, N-Benzyl-1-(5-(3-(4-(thiophen-3-yl)-1H-imidazo[4,5-c]pyridin-2-yl)-1H-pyrazolo[3,4-c]pyridin-5-yl)pyridin-3-yl)methanamine] | ≤ 9 nM | 116 nM
CCNCc1cncc(-c2cc3c(-c4nc5c(-c6ccoc6)nccc5[nH]4)n[nH]c3cn2)c1 [Compound 292, N-((5-(3-(4-(Furan-3-yl)-1H-imidazo[4,5-c]pyridin-2-yl)-1H-pyrazolo[3,4-c]pyridin-5-yl)pyridin-3-yl)methyl)ethanamine] | ≤ 9 nM | 80.4 nM
CCCCC(=O)Nc1cncc(-c2cc3c(-c4nc5c(-c6ccoc6)nccc5[nH]4)n[nH]c3cn2)c1 [Compound 304, N-(5-(3-(4-(Furan-3-yl)-1H-imidazo[4,5-c]pyridin-2-yl)-1H-pyrazolo[3,4-c]pyridin-5-yl)pyridin-3-yl)pentanamide] | ≥ 9990 nM | 64 nM
c1cc2[nH]c(-c3n[nH]c4cnc(-c5cncc(CNCC6CCCC6)c5)cc34)nc2c(-c2ccoc2)n1 [Compound 310, 1-Cyclopentyl-N-((5-(3-(4-(furan-3-yl)-1H-imidazo[4,5-c]pyridin-2-yl)-1H-pyrazolo[3,4-c]pyridin-5-yl)pyridin-3-yl)methyl)methanamine] | > 10000 nM | 396 nM
CN(C)c1cncc(-c2cc3c(-c4nc5c(-c6cccs6)nccc5[nH]4)n[nH]c3cn2)c1 [Compound 319, N,N-Dimethyl-5-(3-(4-(thiophen-2-yl)-1H-imidazo[4,5-c]pyridin-2-yl)-1H-pyrazolo[3,4-c]pyridin-5-yl)pyridin-3-amine] | ≤ 9 nM | 53.4 nM
CN(C)Cc1cncc(-c2cc3c(-c4nc5c(-c6cccs6)nccc5[nH]4)n[nH]c3cn2)c1 [Compound 325, N,N-Dimethyl-1-(5-(3-(4-(thiophen-2-yl)-1H-imidazo[4,5-c]pyridin-2-yl)-1H-pyrazolo[3,4-c]pyridin-5-yl)pyridin-3-yl)methanamine] | ≤ 9 nM | > 10000 nM
CCCC(=O)Nc1cncc(-c2cc3c(-c4nc5c(-c6cccs6)nccc5[nH]4)n[nH]c3cn2)c1 [Compound 329, N-(5-(3-(4-(Thiophen-2-yl)-1H-imidazo[4,5-c]pyridin-2-yl)-1H-pyrazolo[3,4-c]pyridin-5-yl)pyridin-3-yl)butyramide] | ≥ 9990 nM | 17.3 nM
FC1(F)CCN(Cc2cncc(-c3cc4c(-c5nc6c(-c7cccs7)nccc6[nH]5)n[nH]c4cn3)c2)C1 [Compound 337, 5-(5-((3,3-Difluoropyrrolidin-1-yl)methyl)pyridin-3-yl)-3-(4-(thiophen-2-yl)-1H-imidazo[4,5-c]pyridin-2-yl)-1H-pyrazolo[3,4-c]pyridine] | ≤ 9 nM | 15.2 nM
CC(C)CC(=O)Nc1cncc(-c2cc3c(-c4nc5c(-c6ccc(F)s6)nccc5[nH]4)n[nH]c3cn2)c1 [Compound 340, N-(5-(3-(4-(5-Fluorothiophen-2-yl)-1H-imidazo[4,5-c]pyridin-2-yl)-1H-pyrazolo[3,4-c]pyridin-5-yl)pyridin-3-yl)-3-methylbutanamide] | 306 nM | 31.7 nM
Fc1ccc(-c2nccc3[nH]c(-c4n[nH]c5cnc(-c6cncc(CN7CCCC7)c6)cc45)nc23)s1 [Compound 352, 3-(4-(5-Fluorothiophen-2-yl)-1H-imidazo[4,5-c]pyridin-2-yl)-5-(5-(pyrrolidin-1-ylmethyl)pyridin-3-yl)-1H-pyrazolo[3,4-c]pyridine] | ≥ 9990 nM | 100 nM
O=C(Nc1cncc(-c2cc3c(-c4nc5c(-c6ccc(F)s6)nccc5[nH]4)n[nH]c3cn2)c1)C1CCC1 [Compound 358, N-(5-(3-(4-(5-Fluorothiophen-2-yl)-1H-imidazo[4,5-c]pyridin-2-yl)-1H-pyrazolo[3,4-c]pyridin-5-yl)pyridin-3-yl)cyclobutanecarboxamide] | 40 nM | 13.7 nM
CCNCc1cncc(-c2cc3c(-c4nc5c(-c6ccc(C)s6)nccc5[nH]4)n[nH]c3cn2)c1 [Compound 370, N-((5-(3-(4-(5-Methylthiophen-2-yl)-1H-imidazo[4,5-c]pyridin-2-yl)-1H-pyrazolo[3,4-c]pyridin-5-yl)pyridin-3-yl)methyl)ethanamine] | 578 nM | 39.1 nM
Cc1ccc(-c2nccc3[nH]c(-c4n[nH]c5cnc(-c6cncc(NC(=O)C(C)(C)C)c6)cc45)nc23)s1 [Compound 372, N-(5-(3-(4-(5-Methylthiophen-2-yl)-1H-imidazo[4,5-c]pyridin-2-yl)-1H-pyrazolo[3,4-c]pyridin-5-yl)pyridin-3-yl)pivalamide] | 1080 nM | 24.6 nM
Cc1ccc(-c2nccc3[nH]c(-c4n[nH]c5cnc(-c6cncc(NC(=O)C(C)C)c6)cc45)nc23)s1 [Compound 373, N-(5-(3-(4-(5-Methylthiophen-2-yl)-1H-imidazo[4,5-c]pyridin-2-yl)-1H-pyrazolo[3,4-c]pyridin-5-yl)pyridin-3-yl)isobutyramide] | ≤ 9 nM | 9.9 nM
Cc1ccc(-c2nccc3[nH]c(-c4n[nH]c5cnc(-c6cncc(CN7CCCCC7)c6)cc45)nc23)s1 [Compound 379, 3-(4-(5-Methylthiophen-2-yl)-1H-imidazo[4,5-c]pyridin-2-yl)-5-(5-(piperidin-1-ylmethyl)pyridin-3-yl)-1H-pyrazolo[3,4-c]pyridine] | ≤ 9 nM | 73.2 nM
Cc1ccc(-c2nccc3[nH]c(-c4n[nH]c5cnc(-c6cncc(NC(=O)C7CCCC7)c6)cc45)nc23)s1 [Compound 385, N-(5-(3-(4-(5-Methylthiophen-2-yl)-1H-imidazo[4,5-c]pyridin-2-yl)-1H-pyrazolo[3,4-c]pyridin-5-yl)pyridin-3-yl)cyclopentanecarboxamide] | ≤ 9 nM | 166 nM
CC(=O)c1ccc(-c2nccc3[nH]c(-c4n[nH]c5cnc(-c6cncc(NC(=O)Cc7ccccc7)c6)cc45)nc23)s1 [Compound 400, N-(5-(3-(4-(5-Acetylthiophen-2-yl)-1H-imidazo[4,5-c]pyridin-2-yl)-1H-pyrazolo[3,4-c]pyridin-5-yl)pyridin-3-yl)-2-phenylacetamide] | ≤ 9 nM | > 10000 nM
CC(=O)c1ccc(-c2nccc3[nH]c(-c4n[nH]c5cnc(-c6cncc(NC(=O)CC(C)(C)C)c6)cc45)nc23)s1 [Compound 406, N-(5-(3-(4-(5-Acetylthiophen-2-yl)-1H-imidazo[4,5-c]pyridin-2-yl)-1H-pyrazolo[3,4-c]pyridin-5-yl)pyridin-3-yl)-3,3-dimethylbutanamide] | ≥ 9990 nM | 1920 nM
CC(=O)c1ccc(-c2nccc3[nH]c(-c4n[nH]c5cnc(-c6cncc(NC(=O)C7CCCCC7)c6)cc45)nc23)s1 [Compound 412, N-(5-(3-(4-(5-Acetylthiophen-2-yl)-1H-imidazo[4,5-c]pyridin-2-yl)-1H-pyrazolo[3,4-c]pyridin-5-yl)pyridin-3-yl)cyclohexanecarboxamide] | ≤ 9 nM | > 10000 nM
CS(=O)(=O)NCc1cc(F)cc(-c2nccc3[nH]c(-c4n[nH]c5cnc(-c6cncc(NC(=O)c7ccccc7)c6)cc45)nc23)c1 [Compound 427, N-(5-(3-(4-(3-Fluoro-5-(methylsulfonamidomethyl)phenyl)-1H-imidazo[4,5-c]pyridin-2-yl)-1H-pyrazolo[3,4-c]pyridin-5-yl)pyridin-3-yl)benzamide] | ≥ 9990 nM | > 10000 nM

— patent US9844536B2, “3-(1H-imidazo[4,5-C]pyridin-2-yl)-1H-pyrazolo[3,4-C]pyridine and therapeutic uses thereof” (Samumed, LLC, priority 2014, dated 2017)
